From patent US7390838B2, “Depigmenting agents” (Pfizer Inc., priority 2003, dated 2008)

Oc1ccc(C2CCCC2)c(O)c1 [Form A, 4-cyclopentyl resorcinol]
melting point: 65 to 66.5 °C
